Laboratory results from PMC9929129, “Towards Translation of PqsR Inverse Agonists: From In Vitro Efficacy Optimization to In Vivo Proof‐of‐Principle” (Advanced Science, 2023).

Tests used:
Kv1.3 potassium channel = biological target: T1, Kv1.3 potassium channel (Homo sapiens, UniProt P22001); test: Ion channel profiling at Charles River: Kv1.3; assay type: cell-based; details: expressed in CHO cells; read-out: ESTIMATED IC50
T1 construct: host or cells: CHO cells
Protocol: (§1) 1.4.3 Ion Channel Profiling at Charles River
(§2) Table S9. Compound 24 was tested against the following ion channels at Charles River Laboratories.
(§3) ASSAY TYPE ION CHANNEL AND EXPRESSION SYSTEM ESTIMATED […]
ScreenPatch Assay Kv1.3 potassium channel (human KCNA3 gene) expressed in CHO […]
(§4) FLIPR Assay expressed in HEK293 cells
(§5) GABAA α5/β3/γ2 ionotropic receptor (human GABRA5, GABRB3, >30
(§6) and GABRG2 genes, expressed in HEK293 cells

ENaC channel = biological target: T2, ENaC channel (Homo sapiens, UniProt P37088+P51168+P51170); test: Ion channel profiling at Charles River: ENaC; assay type: cell-based
T2 construct: host or cells: HEK293 cells
Protocol: as §1, §2, §3
ScreenPatch Assay Kv1.3 potassium channel (human KCNA3 gene) expressed in CHO
ENaC channel (human SCNN1A, SCNN1B and SCNN1G genes, >30
as §4, §5, §6

CYP2C9 = biological target: T3, CYP2C9 (Homo sapiens, UniProt P11712); test: Cytochrome P450 inhibition assay, CYP2C9; assay type: in vitro ADME; details: Metabolic activity
T3 construct: Cyprotex
T3 sequence (P11712 whole entry): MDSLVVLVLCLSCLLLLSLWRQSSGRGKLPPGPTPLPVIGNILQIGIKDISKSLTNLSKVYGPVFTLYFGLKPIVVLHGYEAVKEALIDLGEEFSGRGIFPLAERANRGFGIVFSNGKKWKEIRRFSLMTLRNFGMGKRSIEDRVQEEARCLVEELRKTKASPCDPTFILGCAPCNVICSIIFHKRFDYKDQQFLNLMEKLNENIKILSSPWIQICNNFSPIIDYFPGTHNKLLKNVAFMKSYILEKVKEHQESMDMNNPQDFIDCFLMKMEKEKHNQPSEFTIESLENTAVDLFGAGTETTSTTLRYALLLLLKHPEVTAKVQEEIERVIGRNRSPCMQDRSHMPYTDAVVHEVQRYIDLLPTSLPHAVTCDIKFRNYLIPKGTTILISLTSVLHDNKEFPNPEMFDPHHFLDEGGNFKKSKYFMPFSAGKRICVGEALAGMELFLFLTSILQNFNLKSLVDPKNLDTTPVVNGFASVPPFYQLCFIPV
Protocol: 1.4.4 Pharmacokinetic and off-target functional assays (Cyprotex)
Compound 24 was assayed at Cyprotex in functional assays for interference with important off-targets as well as important pharmacokinetic parameters. With the exception of plasma protein binding, a dose-response relationship was studied in order to calculate IC50 values.
Table S10. Information on in vitro ADMET assays performed at Cyprotex. […]
(§7) An increase in the number of colonies of at least two-fold over baseline (mean + SD of the vehicle control) and a dose response indicate a positive response. An […]
(§8) different from the vehicle control.
(§9) Where indicated, S9 fraction from the livers of Aroclor 1254-treated rats were included in the incubation at a final concentration of 4.5%. A NADPH-regenerating system was also included to ensure a steady supply of reducing equivalents.

[1] = Mouse maximum tolerated dose (MTD) study; assay type: in vivo, NMRI mice
Protocol: 1.4.6 Mouse Maximum tolerated dose (MTD) study (Aurigon)
The maximum tolerated dose of 24 in NMRI mice was conducted and analyzed at CRO ATRC Aurigon Toxicological Research Center Ltd, Hungary. The study was conducted in accordance with Standard Operating Procedures of ATRC and the requirements of EEC Directive 2001/83/EC of the European Parliament and of the Council of November 6, 2001 on the Community Code relating to Medicinal Products for human use (Official Journal L -311,28/11/2004, p.67–128) as amended by EEC Directive 2004/27/EC of the European Parliament and the Council of March 31, 2004 amending Directive 2001/83/EC on the Community code relating to medicinal products for human use (Official Journal L - 136, 30/04/2004, p. 34-57), ICH Guideline M3(R2) “Guidance on Nonclinical Safety Studies for the Conduct of Human Clinical Trials and Marketing Authorization for Pharmaceuticals”, ICH Guideline S3A “Toxicokinetics: The Assessment of Systemic Exposure in Toxicity Studies”, OECD Guideline for the Testing of Chemicals: Toxicokinetics, (OECD 417, 2010). This study was conducted in compliance with the principles of Hungarian Act 1998: XXVIII regulating animal protection (latest modified by Act 2011 CLVIII) and in Government Decree 40/2013 on animal experiments. Handling and care of the animals will be conducted according to the Guide for the Care and Use of Laboratory Animals, NRC, […]
Animals were 6 weeks old and weighed 27–34 g. 24 was applied subcutaneously in a formulation […]
48 h. As no clinical findings were observed, 30 mg/kg was then applied to the next group. Likewise, 60 mg/kg were applied 48 h after. Mortality was observed twice a day. Clinical observation was performed directly after dosing, 1 h, 2 h, 4 h, 24 h and 48 h after administration. Body weight was registered prior to treatment and daily after the dosing for 48 h. For serum concentration determination, 100 μL blood were collected from each animal at 0.5 h and 4 h time points after the administration, processed to plasma and analyzed using HPLC-MS/MS at HZI. Each group consisted of 5 male and 5 female mice, 2 of which were used for blood collection.

P2X4 receptor = biological target: T4, P2X4 receptor (Homo sapiens, UniProt Q99571); test: Ion channel profiling at Charles River: P2X4; assay type: cell-based; details: expressed in HEK293 cells; read-out: ESTIMATED IC50
T4 construct: host or cells: HEK293 cells
T4 sequence (Q99571 whole entry): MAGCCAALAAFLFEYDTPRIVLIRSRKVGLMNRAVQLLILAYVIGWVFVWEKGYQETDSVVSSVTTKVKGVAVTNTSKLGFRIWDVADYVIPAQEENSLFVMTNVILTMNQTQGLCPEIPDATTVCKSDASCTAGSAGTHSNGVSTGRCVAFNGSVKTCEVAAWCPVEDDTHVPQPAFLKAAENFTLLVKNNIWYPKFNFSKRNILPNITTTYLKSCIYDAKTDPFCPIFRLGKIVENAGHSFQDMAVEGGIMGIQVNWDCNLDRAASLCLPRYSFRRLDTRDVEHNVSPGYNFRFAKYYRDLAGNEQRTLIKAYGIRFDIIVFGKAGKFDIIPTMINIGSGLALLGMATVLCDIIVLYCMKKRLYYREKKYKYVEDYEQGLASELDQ
Protocol: as §1
Table S9. Compound 24 was tested against the following ion channels at Charles River Laboratories. […]
as §4
GABAA α5/β3/γ2 ionotropic receptor (human GABRA5, GABRB3, >30 and GABRG2 genes, expressed in HEK293 cells
P2X4 receptor (human P2RX4 gene) expressed in HEK293 cells >30 […]
as §7, §8, §9

COX-1 (h) = biological target: T5, COX-1 (h) (Homo sapiens, UniProt P23219); test: Cerep panel functional assay; assay type: biochemical
T5 construct: Eurofins Pharma Discovery (CRO that ran the assay) SafetyScreen44 Panel (Cerep, ITEM P270)
T5 sequence (P23219 24-599): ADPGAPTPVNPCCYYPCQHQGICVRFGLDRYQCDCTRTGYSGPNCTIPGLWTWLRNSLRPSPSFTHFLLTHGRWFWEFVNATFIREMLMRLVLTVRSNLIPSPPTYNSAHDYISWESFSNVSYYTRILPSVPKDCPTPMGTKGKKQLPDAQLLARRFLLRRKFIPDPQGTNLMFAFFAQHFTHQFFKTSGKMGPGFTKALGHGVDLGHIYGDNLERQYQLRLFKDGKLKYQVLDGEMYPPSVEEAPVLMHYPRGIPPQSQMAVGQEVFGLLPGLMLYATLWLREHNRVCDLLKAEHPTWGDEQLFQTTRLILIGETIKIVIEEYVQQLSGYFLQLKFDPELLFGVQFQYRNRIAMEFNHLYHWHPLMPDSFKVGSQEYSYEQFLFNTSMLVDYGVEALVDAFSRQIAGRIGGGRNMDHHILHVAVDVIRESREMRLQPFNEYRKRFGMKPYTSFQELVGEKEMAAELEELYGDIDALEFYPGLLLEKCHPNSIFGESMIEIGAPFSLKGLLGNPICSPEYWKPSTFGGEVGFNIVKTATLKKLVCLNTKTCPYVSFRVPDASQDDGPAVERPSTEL
Protocol: (§10) 1.4 Safety Pharmacology of Compound 24
(§11) 1.4.1 Cerep panel (Eurofins)
(§12) Compound 24 was further profiled for its off-target interactions against a panel of 44 targets. The
(§13) screening was done by Eurofins Pharma Discovery within the SafetyScreen44 Panel (Cerep, ITEM
(§14) P270). In all assays binding/functional inhibition was determined at 10 µM. […]

PDE3A (h) = biological target: T6, PDE3A (h) (Homo sapiens, UniProt Q14432); test: Cerep panel functional assay; assay type: biochemical
T6 construct: Eurofins Pharma Discovery (CRO that ran the assay) SafetyScreen44 Panel (Cerep, ITEM P270)
T6 sequence (Q14432 whole entry): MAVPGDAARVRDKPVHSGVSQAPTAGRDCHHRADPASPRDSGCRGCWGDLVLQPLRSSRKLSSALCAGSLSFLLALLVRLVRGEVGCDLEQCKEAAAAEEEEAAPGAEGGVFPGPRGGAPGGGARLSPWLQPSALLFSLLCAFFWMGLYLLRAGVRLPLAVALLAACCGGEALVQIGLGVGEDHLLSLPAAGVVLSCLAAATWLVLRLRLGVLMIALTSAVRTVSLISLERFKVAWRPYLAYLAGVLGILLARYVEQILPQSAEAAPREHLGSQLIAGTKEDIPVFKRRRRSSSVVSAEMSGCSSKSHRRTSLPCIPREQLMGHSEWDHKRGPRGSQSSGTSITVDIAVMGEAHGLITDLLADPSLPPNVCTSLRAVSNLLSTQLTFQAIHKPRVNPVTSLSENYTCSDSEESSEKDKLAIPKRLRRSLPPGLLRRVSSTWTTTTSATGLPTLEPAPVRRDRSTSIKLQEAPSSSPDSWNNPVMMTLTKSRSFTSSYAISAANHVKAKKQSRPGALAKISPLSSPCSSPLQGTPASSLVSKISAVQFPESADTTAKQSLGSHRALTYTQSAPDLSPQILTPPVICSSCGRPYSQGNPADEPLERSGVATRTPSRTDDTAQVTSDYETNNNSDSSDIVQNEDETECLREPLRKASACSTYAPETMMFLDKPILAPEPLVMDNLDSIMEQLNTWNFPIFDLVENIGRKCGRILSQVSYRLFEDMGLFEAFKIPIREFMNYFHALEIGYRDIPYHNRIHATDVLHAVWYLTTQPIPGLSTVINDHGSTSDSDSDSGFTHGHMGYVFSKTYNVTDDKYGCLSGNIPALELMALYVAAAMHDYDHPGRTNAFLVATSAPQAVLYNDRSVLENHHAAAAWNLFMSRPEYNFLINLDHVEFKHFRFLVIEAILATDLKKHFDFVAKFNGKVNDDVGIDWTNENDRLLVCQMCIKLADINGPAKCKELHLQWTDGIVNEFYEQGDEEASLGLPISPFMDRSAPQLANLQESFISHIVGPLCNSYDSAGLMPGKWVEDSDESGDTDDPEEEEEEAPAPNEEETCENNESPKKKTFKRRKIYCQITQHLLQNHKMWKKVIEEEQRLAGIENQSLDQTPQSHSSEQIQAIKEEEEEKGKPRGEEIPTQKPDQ
Protocol: as §10, §11, §12, §13, §14

acetylcholinesterase (h) = biological target: T7, acetylcholinesterase (h) (Homo sapiens, UniProt P22303); test: Cerep panel functional assay; assay type: biochemical
T7 construct: Eurofins Pharma Discovery (CRO that ran the assay) SafetyScreen44 Panel (Cerep, ITEM P270)
T7 sequence (P22303 32-614): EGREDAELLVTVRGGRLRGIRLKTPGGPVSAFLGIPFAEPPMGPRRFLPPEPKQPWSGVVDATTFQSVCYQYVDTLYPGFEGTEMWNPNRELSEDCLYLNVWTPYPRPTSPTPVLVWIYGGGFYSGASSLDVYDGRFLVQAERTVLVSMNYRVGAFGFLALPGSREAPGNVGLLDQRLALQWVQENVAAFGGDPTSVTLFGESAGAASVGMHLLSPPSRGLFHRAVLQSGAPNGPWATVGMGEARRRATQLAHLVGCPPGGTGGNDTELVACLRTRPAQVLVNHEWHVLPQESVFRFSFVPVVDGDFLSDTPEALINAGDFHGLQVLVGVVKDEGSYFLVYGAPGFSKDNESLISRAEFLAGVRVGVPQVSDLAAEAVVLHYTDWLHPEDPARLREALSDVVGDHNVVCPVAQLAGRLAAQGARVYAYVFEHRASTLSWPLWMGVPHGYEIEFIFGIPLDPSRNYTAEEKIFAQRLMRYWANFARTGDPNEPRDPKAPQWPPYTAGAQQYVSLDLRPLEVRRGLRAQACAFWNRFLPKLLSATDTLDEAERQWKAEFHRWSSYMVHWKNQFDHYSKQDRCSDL
Protocol: as §10, §11, §12, §13, §14

PDE4D2 (h) = biological target: T8, PDE4D2 (h) (Homo sapiens, UniProt Q08499); test: Cerep panel functional assay; assay type: biochemical
T8 construct: Eurofins Pharma Discovery (CRO that ran the assay) SafetyScreen44 Panel (Cerep, ITEM P270)
T8 sequence (Q08499 303-809 limits assumed): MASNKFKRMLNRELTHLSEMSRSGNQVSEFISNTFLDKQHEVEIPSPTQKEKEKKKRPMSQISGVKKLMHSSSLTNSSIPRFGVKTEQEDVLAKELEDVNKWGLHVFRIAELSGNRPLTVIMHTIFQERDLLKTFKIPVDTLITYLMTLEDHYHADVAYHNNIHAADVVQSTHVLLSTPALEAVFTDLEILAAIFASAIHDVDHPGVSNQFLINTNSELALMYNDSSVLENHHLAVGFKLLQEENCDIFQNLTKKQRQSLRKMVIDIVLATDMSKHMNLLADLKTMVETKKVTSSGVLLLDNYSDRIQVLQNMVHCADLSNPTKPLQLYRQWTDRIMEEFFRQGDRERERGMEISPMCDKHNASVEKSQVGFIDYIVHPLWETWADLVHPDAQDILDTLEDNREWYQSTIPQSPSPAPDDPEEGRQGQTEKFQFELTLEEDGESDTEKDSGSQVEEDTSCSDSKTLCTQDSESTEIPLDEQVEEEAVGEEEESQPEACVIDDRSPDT
Protocol: as §10, §11, §12, §13, §14

COX-2 (h) = biological target: T9, COX-2 (h) (Homo sapiens, UniProt P35354); test: Cerep panel functional assay; assay type: biochemical
T9 construct: Eurofins Pharma Discovery (CRO that ran the assay) SafetyScreen44 Panel (Cerep, ITEM P270)
T9 sequence (P35354 18-604): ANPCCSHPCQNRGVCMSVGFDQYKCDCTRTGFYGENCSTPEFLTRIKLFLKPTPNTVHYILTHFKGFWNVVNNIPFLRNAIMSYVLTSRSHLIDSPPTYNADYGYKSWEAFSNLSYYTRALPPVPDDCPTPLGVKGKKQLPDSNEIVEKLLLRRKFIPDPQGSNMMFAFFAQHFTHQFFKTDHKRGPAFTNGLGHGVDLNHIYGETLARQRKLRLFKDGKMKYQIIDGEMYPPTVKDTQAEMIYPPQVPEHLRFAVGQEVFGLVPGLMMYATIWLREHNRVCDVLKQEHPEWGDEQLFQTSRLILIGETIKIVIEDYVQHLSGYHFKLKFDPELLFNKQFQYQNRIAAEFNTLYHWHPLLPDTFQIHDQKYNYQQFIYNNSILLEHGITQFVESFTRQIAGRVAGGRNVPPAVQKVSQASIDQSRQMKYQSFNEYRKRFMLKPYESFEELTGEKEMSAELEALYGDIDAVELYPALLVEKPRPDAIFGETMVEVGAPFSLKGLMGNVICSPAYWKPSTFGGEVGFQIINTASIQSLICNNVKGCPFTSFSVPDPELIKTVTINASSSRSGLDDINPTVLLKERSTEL
Protocol: as §10, §11, §12, §13, §14

Lck kinase (h) = biological target: T10, Lck kinase (h) (Homo sapiens, UniProt P06239); test: Cerep panel functional assay; assay type: biochemical
T10 construct: Eurofins Pharma Discovery (CRO that ran the assay) SafetyScreen44 Panel (Cerep, ITEM P270)
T10 sequence (P06239 whole entry): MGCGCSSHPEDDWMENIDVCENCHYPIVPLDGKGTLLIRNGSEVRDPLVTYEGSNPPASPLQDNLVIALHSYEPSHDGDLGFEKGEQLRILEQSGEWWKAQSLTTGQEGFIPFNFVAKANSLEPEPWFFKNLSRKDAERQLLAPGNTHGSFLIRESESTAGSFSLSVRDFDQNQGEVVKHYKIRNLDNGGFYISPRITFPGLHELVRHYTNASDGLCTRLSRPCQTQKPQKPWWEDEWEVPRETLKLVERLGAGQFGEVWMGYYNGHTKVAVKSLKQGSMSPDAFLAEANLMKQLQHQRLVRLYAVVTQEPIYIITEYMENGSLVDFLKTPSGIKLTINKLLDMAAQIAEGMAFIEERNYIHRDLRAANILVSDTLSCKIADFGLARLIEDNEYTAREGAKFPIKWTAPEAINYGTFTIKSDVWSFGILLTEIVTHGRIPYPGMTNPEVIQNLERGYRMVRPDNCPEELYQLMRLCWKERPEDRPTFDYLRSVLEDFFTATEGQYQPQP
Protocol: as §10, §11, §12, §13, §14

Question: For CC(C)Oc1ccc(-c2ncc(CNc3ccnc(C(F)(F)F)c3)cn2)cc1Cl [Compound 24], which IC50 (Kv1.3 potassium channel) is on record?
Answer: The IC50 was over 30 µM.

Question: What about the IC50 (ENaC channel) of the same molecule?
Answer: Its IC50 is over 30 µM.

Question: What about the IC50 (CYP2C9) of the same molecule?
Answer: Its IC50 is over 25 µM.

Question: What about the clinical findings ([1]; 60 mg kg^−1 subcutaneous, slight, transient, at 2 and 4 h) of the same molecule?
Answer: Its clinical findings is “piloerection and decreased activity (3 of 10 mice)”.

Question: And the “mortality or loss of body weight” value ([1]; 10, 30, and 60 mg kg^−1 subcutaneous, during 48 h)?
Answer: Its value is “no mortality or loss of body weight”.

Question: And the clinical findings ([1]; 10 and 30 mg kg^−1 subcutaneous)?
Answer: The clinical findings was “devoid of any clinical findings”.

Question: What about the “tolerability in male and female mice” value ([1]; up to 60 mg kg^−1 subcutaneous) of the same molecule?
Answer: Its value is “well tolerated”.

Question: And the IC50 (P2X4 receptor)?
Answer: Its IC50 is over 30 µM.

Question: And the inhibition at 10 µM (COX-1 (h))?
Answer: Its inhibition at 10 µM is 8.8%.

Question: And the inhibition at 10 µM (PDE3A (h))?
Answer: The inhibition at 10 µM was 0.3%.

Question: And the inhibition at 10 µM (acetylcholinesterase (h))?
Answer: The inhibition at 10 µM was -1.9%.

Question: And the inhibition at 10 µM (PDE4D2 (h))?
Answer: The inhibition at 10 µM was 6.7%.

Question: And the inhibition at 10 µM (COX-2 (h))?
Answer: The inhibition at 10 µM was 19.1%.

Question: And the inhibition at 10 µM (Lck kinase (h))?
Answer: The inhibition at 10 µM was -6.8%.
